Results from ChEMBL document CHEMBL1201862, “PubChem BioAssay data set” (2004).
Active and inactive are the calls of the source.

Columns and labels:
[1] = tested on: HEK293; assay: HEK293T cell cytotoxicity, dose response, cytotoxicity control, ATP luminescence, cherry-pick samples (AID 687005); assay type: functional, cell-based; conditions: Homo sapiens;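 also: cells exposed to compound for 48 hours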
[2] = HEK293 Cytotoxicity Assay Measured in Cell-Based System Using Plate Reader - 7071-01_Inhibitor_Dose_CherryPick_Activity_Set2.; assay type: functional
[3] = A375 melanoma cell viability loss, dose response, counter-screen for MITF inhibitor project, CellTiter-Glo luminescence, dry powder, set 4 (AID 624364); assay type: functional, cell-based; conditions: A-375;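 also: A375 melanoma cells are MITF independent so this is a counter screen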
[4] = A375 melanoma cell cytotoxicity, dose response, counter-screen for MITF inhibitor project, CellTiter-Glo luminescence, dry powder, set 2 (AID 624489); assay type: functional, cell-based; conditions: A-375;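 also: actives are compounds lowering A375 viability meaning general cytotoxicity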
[5] = tested on: HEK293; assay: inhibitors of LMP1-driven NF-kB reporter, dose response, cell-based, HEK293, luciferase, cherry-pick (AID 588343); assay type: functional; conditions: Homo sapiens
[6] = A549 cell cytotoxicity, dose response, cytotoxicity control, plate reader, cherry-pick, antagonist series (AID 743412); assay type: functional, cell-based
[7] = HepG2 cell cytotoxicity, dose response, cytotoxicity control, plate reader, cherry-pick, antagonist series (AID 743416); assay type: functional, cell-based
[8] = LGR2 antagonists, dose response, cell-based, HEK293, CRE-luciferase reporter, cherry pick, set 2 (AID 743343); assay type: functional;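 also: transfected cells were stimulated with diluted bursicon conditioned medium after compound addition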
[9] = MC4R antagonists, dose response, counter-screen for LGR2 antagonist project, cell-based, plate reader, cherry pick (AID 743444); assay type: functional;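 also: transfected HEK 293 cells stimulated with alpha-MSH peptide; potency of inhibitors of the alpha-MSH evoked signal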
[10] = HEK293 cell cytotoxicity, dose response, cytotoxicity control, plate reader, cherry-picked samples (AID 743446); assay type: functional, cell-based
[11] = HEp-2 cell cytotoxicity, dose response, cytotoxicity control for RSV inhibitor project, HTS (AID 2410); assay type: functional; conditions: human respiratory syncytial virus
[12] = inhibitors of firefly luciferase expression or activity, dose response, H4 neuroglioma cells, luminescence (AID 1990); assay type: functional, cell-based
[13] = Luminescence Cell-Based Dose Response HTS to Identify Inhibitors of 5'UTR Stem-Loop Driven Prion Protein mRNA Translation in H4 Neuroglioblastoma Cells. [Related pubchem assays: 1827 (Project Summary), 1813 (Primary HTS)]; assay type: functional
[14] = inhibitors of SNCA 5'UTR-driven reporter translation, confirmation, H4 neuroglioma cells, luminescence (AID 1988); assay type: functional, cell-based
[15] = tested on: Vero; assay: cells; assay type: functional, cell-based; conditions: Chlorocebus sabaeus
[16] = tested on: Vero; assay: cells; assay type: functional; conditions: Chlorocebus sabaeus
[17] = target: Disintegrin and metalloproteinase domain-containing protein 17 (Homo sapiens, UniProt P78536); assay: exosite inhibitors of ADAM17, dose response, biochemical (AID 743260)
Chain of Disintegrin and metalloproteinase domain-containing protein 17 (P78536 whole entry, the tested form may be a part): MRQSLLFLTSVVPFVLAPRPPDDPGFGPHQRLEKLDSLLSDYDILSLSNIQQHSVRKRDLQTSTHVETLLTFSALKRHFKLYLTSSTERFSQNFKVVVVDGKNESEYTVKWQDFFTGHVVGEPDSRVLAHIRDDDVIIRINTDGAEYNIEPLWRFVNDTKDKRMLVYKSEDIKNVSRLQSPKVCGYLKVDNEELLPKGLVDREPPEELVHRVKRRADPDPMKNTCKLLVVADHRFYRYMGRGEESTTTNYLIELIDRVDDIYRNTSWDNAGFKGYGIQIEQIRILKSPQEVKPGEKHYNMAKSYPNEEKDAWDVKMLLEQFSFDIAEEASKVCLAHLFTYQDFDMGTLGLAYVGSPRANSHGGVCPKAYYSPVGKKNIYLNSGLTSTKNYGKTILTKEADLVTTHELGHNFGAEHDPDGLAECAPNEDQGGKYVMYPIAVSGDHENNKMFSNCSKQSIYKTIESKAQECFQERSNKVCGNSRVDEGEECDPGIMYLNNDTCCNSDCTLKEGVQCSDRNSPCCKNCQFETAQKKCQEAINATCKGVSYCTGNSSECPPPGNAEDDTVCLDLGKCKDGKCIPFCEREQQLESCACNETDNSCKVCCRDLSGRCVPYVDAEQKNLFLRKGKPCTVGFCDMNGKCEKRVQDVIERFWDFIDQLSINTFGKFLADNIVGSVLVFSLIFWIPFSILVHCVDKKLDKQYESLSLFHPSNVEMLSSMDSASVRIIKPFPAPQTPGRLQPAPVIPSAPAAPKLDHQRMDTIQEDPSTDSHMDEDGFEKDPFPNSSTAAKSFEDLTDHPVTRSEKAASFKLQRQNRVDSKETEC

[18] = ADAM10 protease inhibitors, dose response, selectivity assay for ADAM17 exosite inhibitor project, biochemical, FRET peptide substrate, recombinant human ADAM10 (AID 743259);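 also: ADAM10 enzyme cleaving a FRET peptide substrate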
[19] = target: T1, Heat shock factor protein 1 (Mus musculus, UniProt P38532); assay: inhibition of MG132-induced HSE-luciferase signal, confirmation, cell-based, NIH3T3, luminescence, dose retest (AID 2382); assay type: functional;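 also: NIH3T3 fibroblasts with HSF1-driven luciferase reporter stressed by proteasome inhibitor MG132; luminescence from HSF1-driven luciferase expression after 8 hours of MG132 stress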
T1 sequence (P38532 whole entry): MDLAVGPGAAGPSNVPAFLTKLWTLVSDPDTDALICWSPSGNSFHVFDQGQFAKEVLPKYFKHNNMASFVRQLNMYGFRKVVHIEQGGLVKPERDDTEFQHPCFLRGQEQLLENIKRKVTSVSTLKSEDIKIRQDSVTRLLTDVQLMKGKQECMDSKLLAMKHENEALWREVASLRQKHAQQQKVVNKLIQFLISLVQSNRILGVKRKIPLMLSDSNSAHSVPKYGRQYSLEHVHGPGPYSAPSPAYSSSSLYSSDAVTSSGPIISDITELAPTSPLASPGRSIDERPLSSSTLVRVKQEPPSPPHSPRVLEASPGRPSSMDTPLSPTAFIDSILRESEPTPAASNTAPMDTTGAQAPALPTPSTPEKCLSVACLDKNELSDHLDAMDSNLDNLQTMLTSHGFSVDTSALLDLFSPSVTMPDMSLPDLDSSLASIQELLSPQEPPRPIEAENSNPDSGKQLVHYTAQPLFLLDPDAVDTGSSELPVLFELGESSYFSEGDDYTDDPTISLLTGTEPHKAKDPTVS

[20] = cells; assay type: functional, cell-based
[21] = cells; assay type: functional, cell-based; remark: listed apart in the source
[22] = Shn3 3'UTR reporter inhibitors, dose response, cell-based, Clone20 osteoblasts, firefly luciferase, cherry-picked (AID 624132); assay type: functional;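 also: firefly luciferase luminescence from reporter carrying the Shn3 3'UTR in osteoblasts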
[23] = HepG2 cell cytotoxicity, dose response, cytotoxicity control for Shn3 inhibitor project, CellTiter-Glo, cherry-picked (AID 624134); assay type: functional, cell-based
[24] = control 3'UTR Renilla luciferase suppression, dose response, counter-screen for Shn3 inhibitor project, cell-based, Clone20-Shn3RL, cherry-picked (AID 624133); assay type: functional
[25] = target: Paired box protein Pax-8 (Homo sapiens, UniProt Q06710); assay: inhibitors of PAX8-driven TPO luciferase reporter, dose response, RMG-I cells, cherry-pick (AID 687027); assay type: functional, cell-based;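 also: luciferase reporter driven by Pax8 target thyroperoxidase promoter measured by SteadyGlo luminescence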
Chain of Paired box protein Pax-8 (Q06710 whole entry): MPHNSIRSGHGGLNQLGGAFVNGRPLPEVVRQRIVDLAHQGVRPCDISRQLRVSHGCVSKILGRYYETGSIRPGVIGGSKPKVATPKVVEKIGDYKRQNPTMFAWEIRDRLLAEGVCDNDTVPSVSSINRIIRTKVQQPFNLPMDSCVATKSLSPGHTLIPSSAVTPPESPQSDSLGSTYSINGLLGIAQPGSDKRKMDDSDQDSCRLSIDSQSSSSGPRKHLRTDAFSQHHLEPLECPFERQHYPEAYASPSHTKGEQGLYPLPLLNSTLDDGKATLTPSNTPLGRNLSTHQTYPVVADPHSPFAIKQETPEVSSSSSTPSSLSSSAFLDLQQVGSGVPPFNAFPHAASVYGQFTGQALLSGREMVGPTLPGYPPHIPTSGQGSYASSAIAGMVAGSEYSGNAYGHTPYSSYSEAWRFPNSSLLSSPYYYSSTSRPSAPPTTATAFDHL

[26] = PAX2 cell-based inhibition, dose response, selectivity assay for PAX8 inhibitor project, plate reader, dry powder samples (AID 743048); assay type: functional;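 also: HEK293 cells carrying a WT1 promoter luciferase reporter driven by expressed Pax2; potency is for inhibition of Pax2 driven reporter signal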
[27] = cytotoxicity in COV362 ovarian cancer cells, dose response, cytotoxicity control for PAX8 inhibitor project, cell-based, plate reader, dry powder, SA12 (AID 743144); assay type: functional
[28] = A2780 ovarian cancer cell cytotoxicity, dose response, cytotoxicity control, plate reader, dry powder samples (AID 743046); assay type: functional, cell-based
[29] = NIH:OVCAR-3 ovarian cancer cell cytotoxicity, dose response, PAX8 inhibitor project, plate reader, dry powder samples (AID 743044); assay type: functional, cell-based
[30] = IGROV1 ovarian cancer cell cytotoxicity, dose response, PAX8 inhibitor project, plate reader, dry powder samples (AID 743043); assay type: functional, cell-based; conditions: IGROV-1
[31] = cytotoxicity in OVCAR4 cells, dose response, cytotoxicity control for PAX8 inhibitor project, cell-based, plate reader, dry powder, SA11 (AID 743150); assay type: functional; conditions: OVCAR-4
[32] = cytotoxicity in COV434 cells, dose response, cytotoxicity control for PAX8 inhibitor project, cell-based, plate reader, dry powder, SA7 (AID 743145); assay type: functional
[33] = cytotoxicity in OV-90 ovarian cancer cells, dose response, PAX8 inhibitor project, cell-based, plate reader, dry powder, SA8 (AID 743149); assay type: functional
[34] = cytotoxicity dependent on PAX8, dose response, cell-based, plate reader, dry powder (AID 743049); assay type: functional
[35] = target: T2, Oxysterols receptor LXR-beta (Homo sapiens, UniProt P55055); assay type: functional, cell-based;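 also: Cell-based luminescence dose-response assay of agonist activity at LXR, run as a confirmatory counterscreen to a daf-12 agonist screen; HEK293 cells with Gal4-LXR fusion and GAL4-driven luciferase reporter; agonist potency from rising luciferase signal of a Gal4-LXR reporter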
T2 sequence (P55055 whole entry): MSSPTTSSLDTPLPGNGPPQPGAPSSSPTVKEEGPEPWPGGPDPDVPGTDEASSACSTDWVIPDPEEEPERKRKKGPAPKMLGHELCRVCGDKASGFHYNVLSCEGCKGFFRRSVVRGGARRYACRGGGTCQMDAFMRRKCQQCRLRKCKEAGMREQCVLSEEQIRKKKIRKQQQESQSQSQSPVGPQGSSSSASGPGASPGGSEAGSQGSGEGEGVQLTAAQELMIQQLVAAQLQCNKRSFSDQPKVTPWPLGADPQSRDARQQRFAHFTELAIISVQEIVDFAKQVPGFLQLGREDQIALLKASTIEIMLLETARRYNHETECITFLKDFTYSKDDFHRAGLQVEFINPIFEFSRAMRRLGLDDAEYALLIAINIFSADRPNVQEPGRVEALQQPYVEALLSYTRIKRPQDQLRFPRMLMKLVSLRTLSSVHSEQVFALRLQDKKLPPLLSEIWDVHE

[36] = cells

With `C[C@H](CO)N1C[C@H](C)[C@@H](CN(C)Cc2ccc(Oc3ccccc3)cc2)Oc2ccc(NC(=O)Nc3ccc4c(c3)OCO4)cc2C1=O` the AC50 [1] was 26.4 µM (active) and the AC50 [2] was 26.4 µM (active).
In the case of `O=C(NC1=C(c2ccc(OC(F)(F)F)cc2)C(=O)c2ccccc2C1=O)c1ccco1`, the AC50 [3] was 32.2 µM (active) and the AC50 [4] was 21.1 µM (active).
With `Cc1ccnc(NC(=O)c2ccc(C(=O)c3ccccc3)cc2)c1` the AC50 [5] was 3.28 µM (active), the AC50 [6] was > 52 µM (inactive) and the AC50 [7] was > 52 µM (inactive). The AC50 [8] was 7.49 µM (active), the AC50 [9] was 5.18 µM (active) and the AC50 [10] was 31.2 µM (active).
For `COc1cc(/C=N/NC(=O)c2cc(-c3ccccc3OC(C)C)nc3ccccc23)ccc1O`, the CC50 [11] was 29.6 µM (active), the EC50 [12] was > 120 µM (not active) and the EC50 [13] was > 120 µM (not active). For the same compound, the EC50 [14] was 13.7 µM (active), the IC50 [15] was > 25 µM (active) and the CC50 [16] was > 25 µM (active). The IC50 [17] was > 69.5 µM (inactive) and the IC50 [18] was > 69.5 µM (inactive).
With `O=C(c1ccc(-c2nc3ccccc3s2)s1)N1CCOCC1` the EC50 [12] was 1.42 µM (active), the EC50 [13] was 54 µM (active) and the EC50 [19] was 1.07 µM (active). The EC50 [14] was 0.887 µM (active), the AC50 [6] was > 52 µM (inactive) and the AC50 [7] was > 52 µM (inactive). For the same compound, the AC50 [8] was 1.49 µM (active), the AC50 [9] was 2.04 µM (active) and the AC50 [10] was 51.4 µM (active).
In the case of `Cc1cc(NC(=O)CCCS(=O)(=O)c2nc(-c3cccs3)cc(C(F)(F)F)n2)no1`, the EC50 [20] was > 350 µM (not active), the EC50 [21] was > 350 µM (not active) and the AC50 [22] was 1.73 µM (active). For the same compound, the AC50 [23] was 16.3 µM (active), the AC50 [24] was 6.46 µM (active) and the AC50 [25] was 6.85 µM (active). The AC50 [26] was 17.3 µM (active), the AC50 [27] was 14.3 µM (active) and the AC50 [28] was 10.3 µM (active). For the same compound, the AC50 [29] was 15.5 µM (active), the AC50 [30] was 16.4 µM (active) and the AC50 [31] was 20.8 µM (active). For the same compound, the AC50 [32] was 12.1 µM (active), the AC50 [33] was 26.3 µM (active) and the AC50 [34] was 18.6 µM (active).
In the case of `Cn1c(=N)n(CC(=O)c2ccccc2)c2ccccc21`, the EC50 [13] was 8.25 µM (inconclusive), the EC50 [35] was > 67.5 µM (inactive) and the EC50 [36] was > 67.5 µM (inactive).
